Measured values taken from patent publication US12115178B2, “Acylated active agents and methods of their use for the treatment of autoimmune disorders” (Flagship Pioneering Innovations V, Inc., priority 2018, dated 2024).

How the values were obtained:
Format in all cases: in vitro ADME
[1] = Assay 3. In vitro Colonic Material Stability Assay; settings: colonic material slurry, anaerobic, 1 or 10 μM
Protocol: Assay 3. In vitro Colonic Material Stability Assay. This assay was used to assess the stability of an acylated active agent in a large intestine. All experiments were performed in an anaerobic chamber containing 90% nitrogen, 5% hydrogen and 5% carbon dioxide. Colonic material was resuspended as a slurry (15% w/v final concentration) in pre-reduced, anaerobically sterilized dilution blanks (Anaerobe Systems AS-908). The colonic material was then inoculated into 96 well plates containing YCFAC media (Anaerobe Systems AS-680) or other suitable media (6.7 μL slurry into 1 mL total media). Compounds or groups of compounds were added to each individual well to reach a final analyte concentration of 1 or 10 μM, and the material was mixed by pipetting. Sample was removed after set timepoints (0, 120, 240, 480, 1440, 2880 minutes after initiation of the assay), quenched with acetonitrile containing internal standard, and analyzed by LC/MS.

[2] = Assay 2. Stability in Simulated Intestinal Fluid (SIF); settings: SIF pH 6.7 with pancreatin, 1 μM, 37° C.
Method in brief: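 Degradation rates came from LC/MS of acetonitrile-quenched samples drawn at intervals, starting at T0. The medium was freshly made pH 6.7 FaSSIF containing pancreatin, and test compound was present at 1 µM while being shaken at 37 °C.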

[3] = Assay 1. Stability in Simulated Gastric Fluid (SGF)
Method in brief: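 Degradation rate from LC/MS of acetonitrile-quenched aliquots (T0, then regular intervals). Fresh SGF (pH 1.6 NaCl, FaSSIF powder, pepsin 0.1 mg/mL) held compound at 1 μM final, 37° C; 1 mM DMSO stock.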

[4] = SGF pH 1.6 with pepsin, 1 μM, 37° C.

CCC(=O)O[C@H]1[C@H](OC(=O)/C=C/c2c[nH]c3ccccc23)OC[C@@H](OC(=O)CC)[C@H]1OC(=O)CC [Compound 92, (2S,3R,4R,5R)-3,4,5-tris(propanoyloxy)oxan-2-yl (2E)-3-(1H-indol-3-yl)prop-2-enoate]
Assay 3 (% Remaining at 24 h) [1]: A (<25% of the tested compound remaining) | Assay 2 (SIF) (% @ Remaining 4 hours) [2]: A (<25% of the tested compound remaining) | Assay 1 (SGF) (% Remaining @ 1 hour) [3, 4]: C (>75% of the tested compound remaining)

CCCC(=O)O[C@@H]1[C@@H](OC(=O)CCC)[C@@H](OC(=O)CCc2c[nH]c3ccccc23)OC[C@H]1OC(=O)CCC [Compound 96, (2R,3R,4S,5R)-4,5-bis(butanoyloxy)-2-{[3-(1H-indol-3-yl)propanoyl]oxy}oxan-3-yl butanoate]
Assay 3 (% Remaining at 24 h) [1]: A (<25% of the tested compound remaining) | Assay 2 (SIF) (% @ Remaining 4 hours) [2]: A (<25% of the tested compound remaining) | Assay 1 (SGF) (% Remaining @ 1 hour) [3, 4]: C (>75% of the tested compound remaining)

CC(=O)O[C@H]1OC[C@H](OC(C)=O)[C@H](OC(C)=O)[C@H]1OC(C)=O [Compound 219, (2R,3R,4S,5S)-tetrahydro-2H-pyran-2,3,4,5-tetrayl tetraacetate]
Assay 3 (% Remaining at 24 h) [1]: A (<25% of the tested compound remaining) | Assay 2 (SIF) (% @ Remaining 4 hours) [2]: A (<25% of the tested compound remaining) | Assay 1 (SGF) (% Remaining @ 1 hour) [3, 4]: C (>75% of the tested compound remaining)

CCC(=O)OC[C@H]1O[C@H](OC)[C@H](OC(=O)CC)[C@@H](OC(=O)CC)[C@@H]1OC(=O)CC [Compound 55, [(2R,3R,4S,5R,6S)-6-methoxy-3,4,5-tris(propanoyloxy)oxan-2-yl]methyl propanoate]
Assay 3 (% Remaining at 24 h) [1]: A (<25% of the tested compound remaining) | Assay 2 (SIF) (% @ Remaining 4 hours) [2]: A (<25% of the tested compound remaining) | Assay 1 (SGF) (% Remaining @ 1 hour) [3, 4]: C (>75% of the tested compound remaining)

CCCC(=O)O[C@H]1[C@@H](Oc2ccc(N)cc2C(=O)O)OC[C@@H](OC(=O)CCC)[C@H]1OC(=O)CCC [Compound 185, 5-amino-2-(((2R,3R,4R,5R)-3,4,5-tris(butyryloxy)tetrahydro-2H-pyran-2-yl)oxy)benzoic acid]
Assay 3 (% Remaining at 24 h) [1]: B (25-75% of the tested compound remaining) | Assay 2 (SIF) (% @ Remaining 4 hours) [2]: B (25-75% of the tested compound remaining) | Assay 1 (SGF) (% Remaining @ 1 hour) [3, 4]: C (>75% of the tested compound remaining)

CCC(=O)O[C@@H]1[C@@H](OC(=O)CC)[C@@H](OC(=O)Cc2c[nH]c3ccccc23)OC[C@@H]1OC(=O)CC [Compound 108, (3S,4S,5R,6R)-6-{[2-(1H-indol-3-yl)acetyl]oxy}-4,5-bis(propanoyloxy)oxan-3-yl propanoate]
Assay 3 (% Remaining at 24 h) [1]: A (<25% of the tested compound remaining) | Assay 2 (SIF) (% @ Remaining 4 hours) [2]: A (<25% of the tested compound remaining) | Assay 1 (SGF) (% Remaining @ 1 hour) [3, 4]: C (>75% of the tested compound remaining)

CCC(=O)O[C@@H]1[C@@H](OC(=O)CC)[C@@H](OC)OC[C@@H]1OC(=O)CC [Compound 53, (2S,3R,4S,5S)-2-methoxy-3,5-bis(propanoyloxy)oxan-4-yl propanoate]
Assay 3 (% Remaining at 24 h) [1]: C (>75% of the tested compound remaining) | Assay 2 (SIF) (% @ Remaining 4 hours) [2]: B (25-75% of the tested compound remaining) | Assay 1 (SGF) (% Remaining @ 1 hour) [3, 4]: C (>75% of the tested compound remaining)

CC(=O)OC[C@H]1O[C@@H](OC(C)=O)[C@H](N)[C@@H](OC(C)=O)[C@@H]1OC(C)=O [Compound 162, (2S,3R,4R,5S,6R)-6-(acetoxymethyl)-3-aminotetrahydro-2H-pyran-2,4,5-triyl triacetate]
Assay 3 (% Remaining at 24 h) [1]: C (>75% of the tested compound remaining) | Assay 2 (SIF) (% @ Remaining 4 hours) [2]: A (<25% of the tested compound remaining) | Assay 1 (SGF) (% Remaining @ 1 hour) [3, 4]: C (>75% of the tested compound remaining)

CCC(=O)O[C@H]1[C@H](OC(=O)CC)[C@H](OC(=O)CCc2c[nH]c3ccccc23)O[C@@H](C)[C@H]1OC(=O)CC [Compound 123, (2S,3S,4R,5R,6S)-6-methyl-3,4,5-tris(propanoyloxy)oxan-2-yl 3-(1H-indol-3-yl)propanoate]
Assay 3 (% Remaining at 24 h) [1]: A (<25% of the tested compound remaining) | Assay 2 (SIF) (% @ Remaining 4 hours) [2]: C (>75% of the tested compound remaining) | Assay 1 (SGF) (% Remaining @ 1 hour) ([3]; Batch 1, SGF): C (>75% of the tested compound remaining) | Assay 1 (SGF) (% Remaining @ 1 hour) ([3]; Batch 2, SGF): B (25-75% of the tested compound remaining)

CCCC(=O)O[C@H]1[C@@H](Oc2ccc(N)cc2C(=O)O)OC[C@@H](OC(=O)CCC)[C@H]1OC(=O)CCC [Compound 21, 5-amino-2-(((2R,3R,4R,5R)-3,4,5-tris(butyryloxy)tetrahydro-2H-pyran-2-yl)oxy)benzoic acid]
Assay 3 (% Remaining at 24 h) [1]: B (25-75% of the tested compound remaining) | Assay 2 (SIF) (% @ Remaining 4 hours) [2]: C (>75% of the tested compound remaining) | Assay 1 (SGF) (% Remaining @ 1 hour) [3, 4]: C (>75% of the tested compound remaining)

CCC(=O)O[C@@H]1[C@@H](OC(=O)CC)[C@@H](OC(=O)/C=C/c2c[nH]c3ccccc23)OC[C@H]1OC(=O)CC [Compound 93, (2R,3R,4S,5R)-3,4,5-tris(propanoyloxy)oxan-2-yl (2E)-3-(1H-indol-3-yl)prop-2-enoate]
Assay 3 (% Remaining at 24 h) [1]: A (<25% of the tested compound remaining) | Assay 2 (SIF) (% @ Remaining 4 hours) [2]: A (<25% of the tested compound remaining) | Assay 1 (SGF) (% Remaining @ 1 hour) [3, 4]: C (>75% of the tested compound remaining)

CCCC(=O)O[C@@H]1[C@@H](OC(=O)CCC)[C@@H](Oc2ccc(N)cc2C(=O)O)OC[C@H]1OC(=O)CCC [Compound 18, 5-amino-2-[(2R,3R,4S,5R)-3,4,5-tri(butanoyloxy)tetrahydropyran-2-yl]oxy-benzoic acid]
Assay 3 (% Remaining at 24 h) [1]: C (>75% of the tested compound remaining) | Assay 1 (SGF) (% Remaining @ 1 hour) [3, 4]: C (>75% of the tested compound remaining)

CCCC(=O)O[C@@H]1[C@H](OC(=O)CCC)[C@H](C)OC(Oc2ccccc2C(=O)O)[C@H]1OC(=O)CCC (stereo partly drawn) [Compound 29, 2-(((3S,4R,5R,6S)-3,4,5-tris(butyryloxy)-6-methyltetrahydro-2H-pyran-2-yl)oxy)benzoic acid]
Assay 3 (% Remaining at 24 h) [1]: C (>75% of the tested compound remaining) | Assay 1 (SGF) (% Remaining @ 1 hour) [3, 4]: C (>75% of the tested compound remaining)

CCCC(=O)O[C@@H]1[C@@H](OC(=O)CCC)[C@H](OC(=O)CCc2c[nH]c3ccccc23)OC[C@H]1OC(=O)CCC [Compound 97, (2S,3R,4S,5R)-4,5-bis(butanoyloxy)-2-{[3-(1H-indol-3-yl)propanoyl]oxy}oxan-3-yl butanoate]
Assay 3 (% Remaining at 24 h) [1]: A (<25% of the tested compound remaining) | Assay 1 (SGF) (% Remaining @ 1 hour) [3, 4]: B (25-75% of the tested compound remaining)

CCCC(=O)O[C@H]1[C@H](OC(=O)CCC)[C@@H](OC(=O)CCc2c[nH]c3ccccc23)O[C@@H](C)[C@H]1OC(=O)CCC [Compound 87, (2R,3S,4R,5R,6S)-4,5-bis(butanoyloxy)-2-{[3-(1H-indol-3-yl)propanoyl]oxy}-6-methyloxan-3-yl butanoate]
Assay 3 (% Remaining at 24 h) [1]: A (<25% of the tested compound remaining) | Assay 1 (SGF) (% Remaining @ 1 hour) [3, 4]: B (25-75% of the tested compound remaining)

CCC(=O)OC[C@H]1O[C@H](OC(=O)/C=C/c2c[nH]c3ccccc23)[C@H](OC(=O)CC)[C@@H](OC(=O)CC)[C@@H]1OC(=O)CC [Compound 99, (2R,3R,4S,5R,6R)-3,4,5-tris(propanoyloxy)-6-[(propanoyloxy)methyl]oxan-2-yl (2E)-3-(1H-indol-3-yl)prop-2-enoate]
Assay 3 (% Remaining at 24 h) [1]: A (<25% of the tested compound remaining) | Assay 1 (SGF) (% Remaining @ 1 hour) [3, 4]: B (25-75% of the tested compound remaining)

CCCC(=O)O[C@@H]1[C@@H](OC(=O)CCC)[C@H](C)O[C@H](OC(=O)CCc2c[nH]c3ccccc23)[C@@H]1OC(=O)CCC [Compound 86, (2R,3R,4R,5S,6S)-4,5-bis(butanoyloxy)-2-{[3-(1H-indol-3-yl)propanoyl]oxy}-6-methyloxan-3-yl butanoate]
Assay 3 (% Remaining at 24 h) [1]: A (<25% of the tested compound remaining) | Assay 1 (SGF) (% Remaining @ 1 hour) [3, 4]: B (25-75% of the tested compound remaining)

CCC(=O)O[C@@H]1[C@@H](OC(=O)CC)[C@H](OC(=O)/C=C/c2c[nH]c3ccccc23)OC[C@@H]1OC(=O)CC [Compound 100, (2S,3R,4S,5S)-3,4,5-tris(propanoyloxy)oxan-2-yl (2E)-3-(1H-indol-3-yl)prop-2-enoate]
Assay 3 (% Remaining at 24 h) [1]: A (<25% of the tested compound remaining) | Assay 1 (SGF) (% Remaining @ 1 hour) [3, 4]: B (25-75% of the tested compound remaining)

CCCC(=O)O[C@@H]1[C@@H](OC(=O)CCC)[C@H](Oc2ccc(N)cc2C(=O)O)OC[C@H]1O [Compound 32, 5-amino-2-(((2S,3R,4S,5R)-3,4-bis(butyryloxy)-5-hydroxytetrahydro-2H-pyran-2-yl)oxy)benzoic acid]
Assay 3 (% Remaining at 24 h) [1]: C (>75% of the tested compound remaining) | Assay 2 (SIF) (% @ Remaining 4 hours) [2]: B (25-75% of the tested compound remaining)

CCCC(=O)Oc1ccc(N)cc1C(=O)O [Compound 16, 5-amino-2-butanoyloxy-benzoic acid]
Assay 3 (% Remaining at 24 h) [1]: C (>75% of the tested compound remaining) | Assay 2 (SIF) (% @ Remaining 4 hours) [2]: C (>75% of the tested compound remaining)
